Holding throughout (assay): HotSpot kinase profiling
Format in all cases: biochemical

Experiment [1] deals with T1, MUSK (Homo sapiens, UniProt O15146).
T1 construct: purchased Reaction Biology Corp
T1 sequence (O15146 24-869): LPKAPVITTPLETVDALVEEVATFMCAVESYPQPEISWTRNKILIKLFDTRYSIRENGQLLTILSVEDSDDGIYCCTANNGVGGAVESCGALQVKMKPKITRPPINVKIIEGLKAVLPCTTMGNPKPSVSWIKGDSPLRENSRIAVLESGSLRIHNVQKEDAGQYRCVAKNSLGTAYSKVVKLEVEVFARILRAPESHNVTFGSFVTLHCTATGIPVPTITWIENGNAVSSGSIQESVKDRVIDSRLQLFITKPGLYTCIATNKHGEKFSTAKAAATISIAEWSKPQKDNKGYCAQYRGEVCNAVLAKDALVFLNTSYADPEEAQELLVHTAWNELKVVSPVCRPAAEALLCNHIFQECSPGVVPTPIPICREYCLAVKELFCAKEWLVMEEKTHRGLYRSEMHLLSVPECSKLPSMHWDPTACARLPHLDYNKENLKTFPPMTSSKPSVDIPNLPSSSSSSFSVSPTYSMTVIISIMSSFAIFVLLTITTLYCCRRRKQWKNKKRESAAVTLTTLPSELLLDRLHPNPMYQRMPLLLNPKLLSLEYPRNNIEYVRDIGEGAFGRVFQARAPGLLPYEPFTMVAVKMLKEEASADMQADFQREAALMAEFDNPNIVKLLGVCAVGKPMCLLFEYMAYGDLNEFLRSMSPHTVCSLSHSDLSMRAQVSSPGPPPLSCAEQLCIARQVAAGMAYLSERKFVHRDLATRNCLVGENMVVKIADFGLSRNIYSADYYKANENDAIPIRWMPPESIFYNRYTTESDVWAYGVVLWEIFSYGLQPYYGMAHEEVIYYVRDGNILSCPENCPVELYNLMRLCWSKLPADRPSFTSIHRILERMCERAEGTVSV
In a few lines:
(§1)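 Percent inhibition, averaged when run more than once and referenced to a DMSO negative control, came from a radioactive filter-binding readout on P81 paper. Reactions of kinase with freshly made substrate and cofactors ran for 2 h at room temperature.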

In experiment [2] the target is T2, LATS1 (Homo sapiens, UniProt O95835).
T2 construct: purchased Reaction Biology Corp
T2 sequence (O95835 1-1130): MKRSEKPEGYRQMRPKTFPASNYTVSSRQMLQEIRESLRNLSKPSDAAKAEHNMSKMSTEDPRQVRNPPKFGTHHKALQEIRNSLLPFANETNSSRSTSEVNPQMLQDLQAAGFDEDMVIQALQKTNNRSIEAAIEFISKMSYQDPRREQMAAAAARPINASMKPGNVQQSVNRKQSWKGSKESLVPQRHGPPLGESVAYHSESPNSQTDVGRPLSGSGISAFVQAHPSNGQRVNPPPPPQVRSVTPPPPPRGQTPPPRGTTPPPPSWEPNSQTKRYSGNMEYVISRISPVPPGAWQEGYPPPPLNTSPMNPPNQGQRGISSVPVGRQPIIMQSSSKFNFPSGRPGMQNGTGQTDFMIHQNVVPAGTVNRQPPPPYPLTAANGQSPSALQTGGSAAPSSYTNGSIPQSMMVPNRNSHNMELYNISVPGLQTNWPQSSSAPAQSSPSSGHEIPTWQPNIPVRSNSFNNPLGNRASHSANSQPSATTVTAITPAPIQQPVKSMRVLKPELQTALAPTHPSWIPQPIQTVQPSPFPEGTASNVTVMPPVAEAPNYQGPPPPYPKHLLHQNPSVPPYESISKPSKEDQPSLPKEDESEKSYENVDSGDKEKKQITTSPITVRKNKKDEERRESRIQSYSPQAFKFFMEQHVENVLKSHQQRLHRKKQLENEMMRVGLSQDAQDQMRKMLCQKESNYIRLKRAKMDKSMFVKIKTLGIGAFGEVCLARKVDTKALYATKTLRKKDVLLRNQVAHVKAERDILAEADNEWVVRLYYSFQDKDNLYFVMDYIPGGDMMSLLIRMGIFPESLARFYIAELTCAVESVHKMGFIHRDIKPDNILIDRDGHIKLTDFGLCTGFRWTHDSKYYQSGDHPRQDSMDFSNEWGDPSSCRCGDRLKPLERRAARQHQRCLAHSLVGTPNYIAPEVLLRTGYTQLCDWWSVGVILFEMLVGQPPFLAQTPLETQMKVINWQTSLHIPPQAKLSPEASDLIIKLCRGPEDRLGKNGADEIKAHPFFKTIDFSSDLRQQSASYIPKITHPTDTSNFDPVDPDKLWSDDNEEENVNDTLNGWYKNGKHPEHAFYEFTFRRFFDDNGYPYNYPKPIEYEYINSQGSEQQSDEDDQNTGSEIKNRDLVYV
In a few lines:
as §1

Experiment [3] deals with T3, AKT3 (Homo sapiens, UniProt Q9Y243).
T3 construct: purchased Reaction Biology Corp
T3 sequence (Q9Y243 whole entry): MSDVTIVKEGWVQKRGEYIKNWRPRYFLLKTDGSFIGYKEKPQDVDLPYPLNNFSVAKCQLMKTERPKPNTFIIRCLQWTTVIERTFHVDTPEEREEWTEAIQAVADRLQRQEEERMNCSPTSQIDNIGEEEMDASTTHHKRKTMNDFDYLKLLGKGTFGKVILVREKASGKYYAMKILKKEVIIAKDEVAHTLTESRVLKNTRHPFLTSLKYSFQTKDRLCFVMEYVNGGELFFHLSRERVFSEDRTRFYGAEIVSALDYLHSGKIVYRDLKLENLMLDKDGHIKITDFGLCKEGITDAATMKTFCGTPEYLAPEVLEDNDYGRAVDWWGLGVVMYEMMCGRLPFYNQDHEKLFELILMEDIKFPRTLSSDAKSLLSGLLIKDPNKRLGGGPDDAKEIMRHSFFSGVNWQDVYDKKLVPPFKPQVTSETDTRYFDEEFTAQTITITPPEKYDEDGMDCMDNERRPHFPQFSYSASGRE
In a few lines: as §1

Experiment [4] concerns the target T4, PIM1 (Homo sapiens, UniProt P11309).
T4 construct: purchased Reaction Biology Corp
In a few lines:
as §1

In experiment [5] the target is T5, CK1g3 (Homo sapiens, UniProt Q9Y6M4).
T5 construct: purchased Reaction Biology Corp
T5 sequence (Q9Y6M4 whole entry): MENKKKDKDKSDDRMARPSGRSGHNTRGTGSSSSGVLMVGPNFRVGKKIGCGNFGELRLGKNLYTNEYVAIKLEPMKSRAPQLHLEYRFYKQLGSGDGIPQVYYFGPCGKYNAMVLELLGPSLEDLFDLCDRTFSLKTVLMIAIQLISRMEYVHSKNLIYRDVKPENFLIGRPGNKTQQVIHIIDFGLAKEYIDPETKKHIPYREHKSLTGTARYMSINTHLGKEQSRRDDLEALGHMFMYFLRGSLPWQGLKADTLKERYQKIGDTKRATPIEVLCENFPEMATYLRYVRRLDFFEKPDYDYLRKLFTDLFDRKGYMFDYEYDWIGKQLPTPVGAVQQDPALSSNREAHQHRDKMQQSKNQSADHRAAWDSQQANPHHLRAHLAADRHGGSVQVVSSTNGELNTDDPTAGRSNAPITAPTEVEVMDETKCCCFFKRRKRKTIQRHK
In short, it runs like this:
as §1

In experiment [6] the target is T6, SIK2 (Homo sapiens, UniProt Q9H0K1).
T6 construct: purchased Reaction Biology Corp
T6 sequence (Q9H0K1 whole entry): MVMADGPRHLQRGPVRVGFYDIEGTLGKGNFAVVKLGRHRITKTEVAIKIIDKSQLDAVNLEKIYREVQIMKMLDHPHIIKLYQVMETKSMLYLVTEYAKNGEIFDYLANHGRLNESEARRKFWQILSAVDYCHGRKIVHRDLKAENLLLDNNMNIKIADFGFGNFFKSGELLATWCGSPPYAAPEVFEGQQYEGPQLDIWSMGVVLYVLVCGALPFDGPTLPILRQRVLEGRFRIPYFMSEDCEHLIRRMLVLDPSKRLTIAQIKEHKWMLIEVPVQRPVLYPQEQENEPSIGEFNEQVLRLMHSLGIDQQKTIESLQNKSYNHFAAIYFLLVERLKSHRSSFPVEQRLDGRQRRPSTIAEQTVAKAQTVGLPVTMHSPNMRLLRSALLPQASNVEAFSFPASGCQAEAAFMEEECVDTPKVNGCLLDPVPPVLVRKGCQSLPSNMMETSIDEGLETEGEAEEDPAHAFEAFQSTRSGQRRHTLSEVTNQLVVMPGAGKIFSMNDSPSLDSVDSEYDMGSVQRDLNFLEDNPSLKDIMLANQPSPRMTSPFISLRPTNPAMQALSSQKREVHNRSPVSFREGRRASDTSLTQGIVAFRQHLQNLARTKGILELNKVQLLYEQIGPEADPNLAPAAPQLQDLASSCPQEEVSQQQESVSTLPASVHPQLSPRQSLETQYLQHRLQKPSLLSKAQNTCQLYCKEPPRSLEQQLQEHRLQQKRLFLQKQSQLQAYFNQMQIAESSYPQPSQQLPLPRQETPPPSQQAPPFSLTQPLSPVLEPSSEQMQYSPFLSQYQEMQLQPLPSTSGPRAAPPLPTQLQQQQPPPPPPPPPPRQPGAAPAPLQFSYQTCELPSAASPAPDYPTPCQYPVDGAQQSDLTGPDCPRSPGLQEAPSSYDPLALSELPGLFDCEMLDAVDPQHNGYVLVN
In short, it runs like this:
as §1

Experiment [7] addresses T7, WNK1 (Homo sapiens, UniProt Q9H4A3).
T7 construct: purchased Reaction Biology Corp
In short, it runs like this: as §1

Where [8] appears, read: read-out: % Enzyme Activity (relative to DMSO controls) Run 1.
Setting [9] is: read-out: % Enzyme Activity (relative to DMSO controls) Run 2.

The structures appear in SMILES notation. Like-named read-outs stand apart in the source and are kept apart here.

For orientation: inhibition means the change of the read-out against control, counted positive when it falls.

T7 sequence (Q9H4A3 whole entry): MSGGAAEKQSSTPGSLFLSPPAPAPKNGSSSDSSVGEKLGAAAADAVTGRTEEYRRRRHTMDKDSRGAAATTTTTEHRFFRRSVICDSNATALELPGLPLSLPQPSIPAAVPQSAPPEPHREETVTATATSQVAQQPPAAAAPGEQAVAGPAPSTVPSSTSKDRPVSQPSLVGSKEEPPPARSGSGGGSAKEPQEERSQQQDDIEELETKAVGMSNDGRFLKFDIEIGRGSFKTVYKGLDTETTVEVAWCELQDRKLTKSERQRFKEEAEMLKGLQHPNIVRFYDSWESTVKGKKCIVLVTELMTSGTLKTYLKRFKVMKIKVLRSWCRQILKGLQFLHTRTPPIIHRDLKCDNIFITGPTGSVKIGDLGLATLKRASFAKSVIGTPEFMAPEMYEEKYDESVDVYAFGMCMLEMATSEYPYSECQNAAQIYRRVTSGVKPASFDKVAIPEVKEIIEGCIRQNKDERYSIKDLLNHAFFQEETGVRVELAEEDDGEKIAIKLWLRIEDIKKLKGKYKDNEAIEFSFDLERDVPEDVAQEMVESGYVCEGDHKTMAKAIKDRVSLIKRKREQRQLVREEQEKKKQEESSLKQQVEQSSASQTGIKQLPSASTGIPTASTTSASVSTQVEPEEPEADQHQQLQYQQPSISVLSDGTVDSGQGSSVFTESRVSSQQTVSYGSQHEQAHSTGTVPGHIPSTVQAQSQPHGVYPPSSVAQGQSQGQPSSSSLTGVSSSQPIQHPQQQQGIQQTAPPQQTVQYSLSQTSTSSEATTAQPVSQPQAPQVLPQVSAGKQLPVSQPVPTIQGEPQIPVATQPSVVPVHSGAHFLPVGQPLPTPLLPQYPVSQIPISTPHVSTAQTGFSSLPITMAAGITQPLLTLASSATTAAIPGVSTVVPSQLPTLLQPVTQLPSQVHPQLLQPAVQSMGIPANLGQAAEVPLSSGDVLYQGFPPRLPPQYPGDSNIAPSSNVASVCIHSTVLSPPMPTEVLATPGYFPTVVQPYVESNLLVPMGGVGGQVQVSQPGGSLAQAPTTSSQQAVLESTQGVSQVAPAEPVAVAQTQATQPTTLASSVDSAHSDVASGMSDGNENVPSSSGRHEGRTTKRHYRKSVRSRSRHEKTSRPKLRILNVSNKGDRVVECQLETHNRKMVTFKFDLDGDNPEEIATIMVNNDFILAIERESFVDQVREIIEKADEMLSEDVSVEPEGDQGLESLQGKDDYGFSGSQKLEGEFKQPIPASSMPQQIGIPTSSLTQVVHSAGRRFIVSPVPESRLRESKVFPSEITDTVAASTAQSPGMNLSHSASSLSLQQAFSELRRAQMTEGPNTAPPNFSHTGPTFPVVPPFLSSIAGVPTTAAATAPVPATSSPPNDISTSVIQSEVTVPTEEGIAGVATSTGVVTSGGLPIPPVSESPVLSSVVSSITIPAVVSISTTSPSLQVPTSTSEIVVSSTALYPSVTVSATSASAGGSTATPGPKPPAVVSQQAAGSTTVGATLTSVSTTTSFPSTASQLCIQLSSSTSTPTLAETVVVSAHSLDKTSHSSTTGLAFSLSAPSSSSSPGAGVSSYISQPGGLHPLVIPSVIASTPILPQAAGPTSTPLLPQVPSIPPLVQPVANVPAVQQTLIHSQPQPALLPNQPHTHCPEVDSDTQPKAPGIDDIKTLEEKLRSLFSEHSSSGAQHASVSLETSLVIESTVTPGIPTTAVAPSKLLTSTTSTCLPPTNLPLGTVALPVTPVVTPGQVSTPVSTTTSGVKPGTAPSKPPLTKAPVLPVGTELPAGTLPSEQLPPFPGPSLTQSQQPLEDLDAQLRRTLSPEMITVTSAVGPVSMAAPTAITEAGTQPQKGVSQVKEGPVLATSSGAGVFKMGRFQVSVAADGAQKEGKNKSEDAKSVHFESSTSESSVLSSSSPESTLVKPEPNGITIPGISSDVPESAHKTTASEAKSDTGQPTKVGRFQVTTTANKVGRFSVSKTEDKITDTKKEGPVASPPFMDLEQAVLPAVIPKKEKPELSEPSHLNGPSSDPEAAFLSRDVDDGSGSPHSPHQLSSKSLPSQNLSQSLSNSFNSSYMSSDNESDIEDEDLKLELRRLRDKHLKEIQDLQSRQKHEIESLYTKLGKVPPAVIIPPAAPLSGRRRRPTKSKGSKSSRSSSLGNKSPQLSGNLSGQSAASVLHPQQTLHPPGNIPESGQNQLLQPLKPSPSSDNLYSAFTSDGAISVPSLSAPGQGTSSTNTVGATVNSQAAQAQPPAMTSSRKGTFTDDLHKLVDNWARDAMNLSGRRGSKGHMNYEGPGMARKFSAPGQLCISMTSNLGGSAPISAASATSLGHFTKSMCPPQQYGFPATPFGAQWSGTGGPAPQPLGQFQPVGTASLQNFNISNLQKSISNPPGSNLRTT
T4 sequence (P11309 whole entry): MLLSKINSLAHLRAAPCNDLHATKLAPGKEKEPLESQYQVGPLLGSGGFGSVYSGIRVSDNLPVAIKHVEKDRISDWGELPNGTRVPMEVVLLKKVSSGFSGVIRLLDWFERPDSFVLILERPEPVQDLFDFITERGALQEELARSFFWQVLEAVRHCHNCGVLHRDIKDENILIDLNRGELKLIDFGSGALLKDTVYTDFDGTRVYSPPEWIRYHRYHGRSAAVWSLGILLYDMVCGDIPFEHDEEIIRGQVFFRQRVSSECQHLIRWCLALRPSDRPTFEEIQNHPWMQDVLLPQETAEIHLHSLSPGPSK

Turning to `C=CC(=O)Nc1cccc(Nc2nc(Nc3ccc(OCCOC)c(F)c3)ncc2F)c1` [Compound 2], the inhibition at 3 µM in experiment [1] is 30.9%; in experiment [2], 10.3%; in experiment [3] it was -6.85%; in experiment [4], -3.82%; in experiment [5], 15%; in experiment [6] it was 43.3%. Moreover, the inhibition at 3 µM in experiment [7] is -12.1%. The remaining activity at 3 µM in experiment [1] (setting [8]) came to 70.2%; in experiment [1] (setting [9]), 68%; in experiment [2] (setting [8]), 89.5%; in experiment [2] (setting [9]), 89.8%; in experiment [3] (setting [8]), 111%; in experiment [3] (setting [9]) it was 103%. The remaining activity at 3 µM turned out to be 104% in experiment [4] (setting [8]); 104% in experiment [4] (setting [9]); 84.2% in experiment [5] (setting [8]); 85.8% in experiment [5] (setting [9]); 56.3% in experiment [6] (setting [8]); 57.1% in experiment [6] (setting [9]). Further, the remaining activity at 3 µM in experiment [7] (setting [8]) and in experiment [7] (setting [9]) was 112% each time.

These data come from patent US9492471B2, “Methods of treating a disease or disorder associated with Bruton'S Tyrosine Kinase” (Celgene Avilomics Research, Inc., priority 2013, dated 2016).
